# Activity calls are given as the source filed them. The calls are words filed in the database; no cut-off is given here.
# How the values were obtained:
# Staphylococcus aureus [1] = assay: Antibacterial activity against methicillin-resistant Staphylococcus aureus M11 infected in BALB/c mouse model of Sepsis assessed as reduction in serum TNF-alpha level administered intraperitoneally measured after 48 hrs; type: functional, organism-based; conditions: dose 10-20 mg/kg, route ip
# [2] = Toxicity in BALB/c mouse assessed as obvious damage in tissues of organs at 30 mg/kg, ip measured for 7 days by H and E staining based analysis; type: organism-based; conditions: in vivo, 168 h, time 7 day
# Staphylococcus aureus [3] = assay: Antibacterial activity against methicillin-resistant Staphylococcus aureus M11 infected in BALB/c mouse model of Sepsis assessed as vacuolar degeneration in renal epithelial cells at 20 mg/kg, ip measured after 48 hrs; type: functional, organism-based
# [4] = Binding affinity to phosphatidylglycerol assessed as change in entropy by ITC analysis
# [5] = Binding affinity to phosphatidylglycerol assessed as change in enthalpy by ITC analysis
# [6] = Binding affinity to phosphatidylglycerol assessed as association constant by ITC analysis
# Staphylococcus aureus [7] = assay: Antibacterial activity against methicillin-resistant Staphylococcus aureus M11 infected in BALB/c mouse model of Sepsis assessed as reduction in bacterial load in kidney at 20 mg/kg, ip measured after 48 hrs; type: functional
# [8] = Toxicity in KM mouse assessed as abnormality in kidney at 30 mg/kg, sc by H and E staining based analysis; type: organism-based; conditions: in vivo
# [9] = Toxicity in BALB/c mouse model of Sepsis infected with methicillin-resistant Staphylococcus aureus M11 assessed as survival rate at 30 mg/kg, ip measured after 7 days; type: organism-based; conditions: in vivo, 168 h, time 7 day
# Staphylococcus aureus [10] = assay: Antibacterial activity against methicillin-resistant Staphylococcus aureus M11 infected in BALB/c mouse model of Sepsis assessed as reduction in bacterial load in kidney at 10 mg/kg, ip measured after 48 hrs; type: functional
# [11] = Toxicity in KM mouse assessed as abnormality in spleen at 30 mg/kg, sc by H and E staining based analysis; type: organism-based; conditions: in vivo
# Staphylococcus aureus [12] = assay: Antibacterial activity against methicillin-resistant Staphylococcus aureus M11 infected in BALB/c mouse model of Sepsis assessed as reduction in bacterial load in spleen at 20 mg/kg, ip measured after 48 hrs; type: functional
# Staphylococcus aureus [13] = assay: Antibacterial activity against methicillin-resistant Staphylococcus aureus M11 infected in BALB/c mouse model of Sepsis assessed as reduction in bacterial load in spleen at 10 mg/kg, ip measured after 48 hrs; type: functional
# [14] = Toxicity in KM mouse assessed as abnormality in liver at 30 mg/kg, sc by H and E staining based analysis; type: organism-based; conditions: in vivo
# [15] = Toxicity in KM mouse assessed as adverse reactions at <=30 mg/kg, sc; type: organism-based; conditions: in vivo
# [16] = Toxicity in KM mouse assessed as erythema on dorsal skin at <=30 mg/kg, sc; type: organism-based; conditions: in vivo
# [17] = Toxicity in KM mouse assessed as abnormality in heart at 30 mg/kg, sc by H and E staining based analysis; type: organism-based; conditions: in vivo
# [18] = Toxicity in BALB/c mouse model of Sepsis infected with methicillin-resistant Staphylococcus aureus M11 assessed as survival rate at 10 mg/kg, ip measured after 7 days; type: organism-based; conditions: in vivo, 168 h, time 7 day
# Staphylococcus aureus [19] = assay: Antibacterial activity against methicillin-resistant Staphylococcus aureus M11 infected in BALB/c mouse model of Sepsis assessed as reduction in bacterial load in liver at 10 mg/kg, ip measured after 48 hrs; type: functional
# Staphylococcus aureus [20] = assay: Antibacterial activity against methicillin-resistant Staphylococcus aureus M11 infected in BALB/c mouse model of Sepsis assessed as reduction in serum IL-6 level administered intraperitoneally measured after 48 hrs; type: functional, organism-based; conditions: dose 10-20 mg/kg, route ip
# Staphylococcus aureus [21] = assay: Antibacterial activity against methicillin-resistant Staphylococcus aureus M11 infected in BALB/c mouse model of Sepsis assessed as vacuolar degeneration in liver cells at 10 to 20 mg/kg, ip measured after 48 hrs; type: functional, organism-based; conditions: dose 10-20 mg/kg
# [22] = Toxicity in BALB/c mouse assessed as lesions in tissues of organs at 10 mg/kg, ip measured for 7 days by H and E staining based analysis; type: organism-based; conditions: in vivo, 168 h, time 7 day
# [23] = Toxicity in BALB/c mouse assessed as obvious damage in tissues of organs at 10 mg/kg, ip measured for 7 days by H and E staining based analysis; type: organism-based; conditions: in vivo, 168 h, time 7 day
# [24] = Toxicity in KM mouse assessed as erythema on dorsal skin at 30 mg/kg, sc; type: organism-based; conditions: in vivo
# [25] = Toxicity in KM mouse assessed as abnormality in kidney at 20 mg/kg, sc by H and E staining based analysis; type: organism-based; conditions: in vivo
# [26] = Toxicity in BALB/c mouse assessed as change in serum biochemical parameters at 10 mg/kg, ip measured for 7 days; type: organism-based; conditions: in vivo, 168 h, time 7 day
# [27] = Toxicity in KM mouse assessed as adverse reactions at <=20 mg/kg, sc; type: organism-based; conditions: in vivo
# [28] = Toxicity in KM mouse assessed as abnormality in liver at 20 mg/kg, sc by H and E staining based analysis; type: organism-based; conditions: in vivo
# [29] = Toxicity in KM mouse assessed as abnormality in spleen at 20 mg/kg, sc by H and E staining based analysis; type: organism-based; conditions: in vivo
# [30] = Toxicity in BALB/c mouse assessed as mortality rate at 20 mg/kg, ip measured for 7 days; type: organism-based; conditions: in vivo, time 7 day, read-out: Activity
# [31] = Toxicity in KM mouse assessed as abnormality in heart at 20 mg/kg, sc by H and E staining based analysis; type: organism-based; conditions: in vivo
smiles,measurement,setting,value
CC(C)=CCc1c(OCCCCSc2cc[n+](CC(=O)N(CC(C)C)CC(C)C)cc2)ccc2ccc(=O)oc12.[Br-],Activity,Staphylococcus aureus [1],Dose-dependent-effect
same,Activity,[2],Non-toxic
same,Activity,Staphylococcus aureus [3],Active; Improvement Was Comparable To That In Vancomycin Group
same,deltaS,[4],11.7 cal/mol/deg
same,deltaH,[5],-2.72 kcal/mol
same,Ka,[6],3.53 10^4/M
same,Activity,Staphylococcus aureus [7],4.24 log10CFU/ml
same,Activity,[8],Non-toxic
same,Survival,[9],100%
same,Activity,Staphylococcus aureus [10],1.81 log10CFU/ml
same,Activity,[11],Non-toxic
same,Activity,Staphylococcus aureus [12],4.33 log10CFU/ml
same,Activity,Staphylococcus aureus [13],1.62 log10CFU/ml
same,Activity,[14],Non-toxic
same,Activity,[15],Non-toxic
same,Activity,[16],Non-toxic
same,Activity,[17],Non-toxic
same,Survival,[18],44.4%
same,Activity,Staphylococcus aureus [19],1.84 log10CFU/ml
same,Activity,Staphylococcus aureus [20],Dose-dependent-effect
same,Activity,Staphylococcus aureus [21],Active
CCCCCNC(=O)C[n+]1ccc(SCCCCCOc2ccc3ccc(=O)oc3c2CC=C(C)C)cc1.[Br-],Activity,[22],Non-toxic
same,Activity,[23],Non-toxic
same,Activity,[24],Toxic
same,Activity,[25],Non-toxic
same,Activity,[26],Non-toxic
same,Activity,[27],Non-toxic
same,Activity,[28],Non-toxic
same,Activity,[29],Non-toxic
same,mortality at 168 h,[30],83.3%
same,Activity,[31],Non-toxic

# Reference: ChEMBL document CHEMBL6109153, “Development of Membrane-Targeting Osthole Derivatives Containing Pyridinium Quaternary Ammonium Moieties with Potent Anti-Methicillin-Resistant Staphylococcus aureus Properties” (J Med Chem, 2025)
